# From patent US8030442B2, “Treatment of injury to the brain by inhibition of acid sensing ion channels” (priority 2004, dated 2011)
# “Also recorded” adds a separate entry of the source.
# Columns and labels:
# hippocampal slice = assay: Seizure-like activity in hippocampal slices in magnesium-free aCSF; conditions: 100 μM for thirty minutes
# Procedure: Hippocampal slices were bathed in magnesium-free artificial cerebrospinal fluid (aCSF). The absence of magnesium in the fluid makes neurons in the slice susceptible to seizure-like electrical activity. Accordingly, the hippocampal slice maintained in magnesium-free fluid provides a model system for epilepsy. Electrical potential was measured prior to addition of any compounds, after treatment with PcTX venom followed by electrical stimulation, after PcTX venom was removed, with amiloride, during transient removal of kyneuric acid, and kainic acid to promote seizure activity in the mice with or without injection of PcTX venom.
# The three graphs in panel 23A show the electrical potential measured from the same hippocampal slice after electrical stimulation near the beginning of each voltage trace, to promote depolarization followed by re-polarization (a peak(s) in the voltage trace). Electrical stimulation of a control hippocampal slice, bathed in fluid with a physiological magnesium level, produced a single peak in the voltage trace (not shown here). In contrast, as shown here in the first graph of panel 23A, electrical stimulation of a hippocampal slice maintained in aCSF without magnesium produced a series of individual peaks, indicative of seizure-like activity.
# [1] = system: rat model of transient focal ischemia; format: in vivo; conditions: n=11
# cortical neurons [2] = format: cell-based, mouse; conditions: with MK801, CNQX, nimodipine, ω-conotoxin MVIIC; n=6-8
# cortical neurons [3] = assay: Acid-induced LDH release in cortical neurons
# [4] = target: T1, ASICs in cortical neurons (Mus musculus, UniProt Q6NXK8); assay: Ca2+-mediated acid-activated current in cortical neurons (10 mM Ca2+ as only charge carrier); format: cell-based; conditions: pH 6.0, -60 mV, n=6, read-out: peak amplitude of Ca2+-mediated current, % of control
# T1 construct: indicating significant Ca^2+ permeability of ASICs in the majority of cortical neurons; endogenous in cells; host or cells: primary cultured mouse cortical neurons
# T1 sequence (Q6NXK8 1-526): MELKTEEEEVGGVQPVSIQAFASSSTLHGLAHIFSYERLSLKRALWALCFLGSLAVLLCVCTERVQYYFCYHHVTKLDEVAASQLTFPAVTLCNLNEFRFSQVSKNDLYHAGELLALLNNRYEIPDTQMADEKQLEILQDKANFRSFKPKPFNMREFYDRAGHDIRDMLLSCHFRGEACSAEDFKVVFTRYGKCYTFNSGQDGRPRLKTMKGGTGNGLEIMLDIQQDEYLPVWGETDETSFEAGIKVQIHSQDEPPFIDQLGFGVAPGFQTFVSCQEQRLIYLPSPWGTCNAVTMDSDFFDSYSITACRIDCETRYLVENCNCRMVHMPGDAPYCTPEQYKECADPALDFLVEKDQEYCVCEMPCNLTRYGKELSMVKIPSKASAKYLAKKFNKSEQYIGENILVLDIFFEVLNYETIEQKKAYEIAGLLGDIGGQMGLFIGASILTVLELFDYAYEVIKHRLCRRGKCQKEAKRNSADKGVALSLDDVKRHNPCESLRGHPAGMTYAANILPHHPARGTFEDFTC
# [5] = system: cortical neurons cultured from ASIC+/+ and ASIC1-/- mice; assay: LDH release in neurons cultured from ASIC+/+ and ASIC1-/- mice; format: cell-based, mouse
# Procedure: Following anesthesia with halothane, cerebral cortices were dissected from PI ASIC1^+/+ and ASIC1^−/− mice and incubated with 0.05% trypsin-EDTA for 10 min at 37° C. Tissues were then triturated with fire-polished glass pipettes and plated on poly-L-ornithine-coated 24-well plates or 25×25 mm glass coverslips at a density of 2.5×10^5 cells per well or 10^6 cells per coverslip. Neurons were cultured with MEM supplemented with 10% horse serum (for E16 cultures) or Neurobasal medium supplemented with B27 (for P1 cultures) and used for electrophysiology and toxicity studies after 12 days. Glial growth was suppressed by addition of 5-fluoro-2-deoxyuridine and uridine, yielding cultured cells with ˜90% neurons as determined by NeuN and GFAP staining (data not shown).
# Cells were treated with either pH 7.4 or 6.0 ECF for 1 hr. LDH release was measured 24 hr after acid incubation. […] Background absorbance at 620 was subtracted.
# [6] = system: COS-7 cells stably transfected with ASIC1a; assay: Acid-induced LDH release in ASIC1a-transfected COS-7 cells; format: cell-based; conditions: 100 μM, 1 hr pH 6.0, 24 hr
# Procedure: COS-7 cells, a cell line commonly used for expression of ASICs due to its lack of endogenous channels (Chen et al. 1998; Immke and McCleskey 2001 and Escoubas et al. 2000), were cultured in MEM with 10% HS and 1% PenStrep (GIBCO). At ˜50% confluence, cells were cotransfected with cDNAs for ASICs and GFP in pcDNA3 vector using FuGENE6 transfection reagents (Roche Molecular Biochemicals). DNA for ASICs (0.75 μg) and 0.25 μg of DNA for GFP were used for each 35 mm dish. GFP-positive cells were selected for patch-clamp recording 48 hr after transfection. For stable transfection of ASIC1a, 500 μg/mL G418 was added to culture medium 1 week following the transfection. The surviving G418-resistant cells were further plated and passed for >5 passages in the presence of G418. Cells were then checked with patch-clamp and immunofluorescent staining for the expression of ASIC1a.
# To provide additional evidence that activation of ASIC1a is involved in acid injury, acid injury of nontransfected and ASIC1a transfected COS-7 cells as described above was studied. Following confluence (36-48 hr after plating), cells were treated with either pH 7.4 or 6.0 ECF for 1 hr.
# LDH release was measured 24 hr after acid incubation. […] Background absorbance at 620 was subtracted.
# [7] = system: cultured hippocampal neurons; assay: Seizure-like electrical activity of cultured hippocampal neurons on kyneuric acid removal; format: cell-based; conditions: during kyneuric acid removal
# Procedure: The neurons were grown in the presence of kyneuric acid. Removal of the kyneuric acid promoted spontaneous, sustained electrical activity by the neurons.
# The magnitude and periodicity of the peaks in the voltage traces changed upon exposure to amiloride.
# TRPM7 channels = TRPM7 channels (Homo sapiens, UniProt Q96QT4); assay: TRPM7 conductance, current-voltage relationship; format: cell-based; conditions: 100 μM or 500 μM, ~10 min
# Chain of TRPM7 channels (Q96QT4 whole entry, the tested form may be a part): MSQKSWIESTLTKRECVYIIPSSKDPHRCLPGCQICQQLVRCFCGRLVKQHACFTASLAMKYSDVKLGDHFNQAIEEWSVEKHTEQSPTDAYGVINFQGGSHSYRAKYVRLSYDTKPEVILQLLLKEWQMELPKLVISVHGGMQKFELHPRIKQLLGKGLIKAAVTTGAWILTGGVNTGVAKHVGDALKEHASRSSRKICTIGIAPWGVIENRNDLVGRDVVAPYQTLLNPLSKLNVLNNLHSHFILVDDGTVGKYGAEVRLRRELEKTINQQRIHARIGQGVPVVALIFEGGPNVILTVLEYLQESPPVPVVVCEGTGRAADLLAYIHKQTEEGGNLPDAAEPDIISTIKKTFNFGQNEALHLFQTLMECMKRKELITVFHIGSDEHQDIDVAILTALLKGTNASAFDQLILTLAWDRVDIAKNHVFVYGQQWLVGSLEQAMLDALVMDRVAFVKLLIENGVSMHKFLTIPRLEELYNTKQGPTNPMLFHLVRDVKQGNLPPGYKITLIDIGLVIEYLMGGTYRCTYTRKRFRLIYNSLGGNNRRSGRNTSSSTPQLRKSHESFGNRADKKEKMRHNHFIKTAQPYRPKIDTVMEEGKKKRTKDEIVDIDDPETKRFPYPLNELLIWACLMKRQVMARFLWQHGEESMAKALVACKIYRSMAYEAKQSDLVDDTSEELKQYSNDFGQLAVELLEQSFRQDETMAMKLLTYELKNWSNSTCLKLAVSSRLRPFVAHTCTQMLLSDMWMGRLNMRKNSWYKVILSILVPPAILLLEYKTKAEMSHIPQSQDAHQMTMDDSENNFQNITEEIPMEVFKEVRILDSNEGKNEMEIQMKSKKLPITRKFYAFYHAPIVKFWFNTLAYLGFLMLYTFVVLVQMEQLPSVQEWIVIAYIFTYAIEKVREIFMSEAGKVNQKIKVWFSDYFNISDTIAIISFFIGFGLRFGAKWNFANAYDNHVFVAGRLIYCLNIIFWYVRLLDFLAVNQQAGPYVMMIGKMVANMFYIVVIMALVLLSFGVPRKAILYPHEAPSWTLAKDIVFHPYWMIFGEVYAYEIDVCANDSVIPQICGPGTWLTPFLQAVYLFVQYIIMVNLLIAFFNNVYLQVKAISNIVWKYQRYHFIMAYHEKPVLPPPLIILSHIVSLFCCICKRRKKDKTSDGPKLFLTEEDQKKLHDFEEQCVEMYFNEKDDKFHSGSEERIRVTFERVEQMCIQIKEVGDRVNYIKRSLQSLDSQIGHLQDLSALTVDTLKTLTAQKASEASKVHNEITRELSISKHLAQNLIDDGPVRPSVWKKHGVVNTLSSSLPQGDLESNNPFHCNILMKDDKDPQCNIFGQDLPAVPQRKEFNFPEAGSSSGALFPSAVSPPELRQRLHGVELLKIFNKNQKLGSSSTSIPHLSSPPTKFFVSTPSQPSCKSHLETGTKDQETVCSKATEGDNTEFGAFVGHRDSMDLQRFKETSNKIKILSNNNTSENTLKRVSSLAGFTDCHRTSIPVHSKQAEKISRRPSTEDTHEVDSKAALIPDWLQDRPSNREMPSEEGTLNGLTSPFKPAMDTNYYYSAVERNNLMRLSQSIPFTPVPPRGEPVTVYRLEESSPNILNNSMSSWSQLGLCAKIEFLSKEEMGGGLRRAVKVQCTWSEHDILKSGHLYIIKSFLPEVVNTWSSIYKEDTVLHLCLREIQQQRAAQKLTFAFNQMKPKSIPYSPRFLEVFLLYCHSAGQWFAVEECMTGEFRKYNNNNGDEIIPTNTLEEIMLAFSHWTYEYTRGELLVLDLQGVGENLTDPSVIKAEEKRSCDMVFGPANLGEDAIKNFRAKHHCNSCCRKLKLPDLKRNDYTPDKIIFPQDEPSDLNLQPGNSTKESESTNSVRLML
# Procedure: In FIG. 36, after a stable current-voltage relationship (I-V curve) was recorded, amiloride at either 100 μM or 500 μM was perfused to the cell for ˜10 min. The I-V curve in the presence of amilolide was then generated (FIG. 36 A). Similarly in FIG. 36B, after a stable I-V curve was recorded, PcTX venom at 300 ng/ml was perfused to the cell for ˜10 min. The I-V curve in the presence of PcTX venom was then generated.
structure (smiles),measurement,setting,value
N=C(N)NC(=O)c1nc(Cl)c(N)nc1N [amiloride],peaks in voltage trace after electrical stimulation,hippocampal slice,reduced both the number and amplitude of peaks
same,infarct volume,[1],229.7±41.1 mm^3
same,peak and sustained acid-induced increases in [Ca2+]i,cortical neurons [2],largely inhibited
same,"LDH release at 24 hr, % of maximal","cortical neurons [3]; 100 μM, 10 min before and during 1 hr pH 6.0, without blocker 45.3%±3.8%",31.1%±2.5%
same,LDH release on prolonged incubation,"cortical neurons [3]; alone, e.g. 5 hr, n=8",increased LDH release
same,baseline LDH release,cortical neurons [3]; pH 7.4 ECF for 1 hr,did not affect baseline LDH release
same,remaining activity at 100 µM,[4],26%
same,acid-induced LDH release in ASIC+/+ neurons,"[5]; 1 hr pH 6.0, n=8-12",reduced
same,effect on acid-induced LDH release in ASIC1-/- neurons,"[5]; knockout of the ASIC1 gene, n=8",eliminated the effect
same,acid-induced LDH release,[6],inhibited acid-induced LDH release
same,seizure-like electrical activity of neurons,[7],blocked the seizure-like electrical activity
same,conductance of TRPM7 channels,TRPM7 channels,had no effect; also recorded: lack of blockade
